# Experiments:
# [1] = target: Voltage-gated inwardly rectifying potassium channel KCNH2 (Homo sapiens, UniProt Q12809); type: functional
# [2] = target: T1, Alpha-2C adrenergic receptor (Homo sapiens, UniProt P18825); type: functional
# T1 sequence (P18825 whole entry): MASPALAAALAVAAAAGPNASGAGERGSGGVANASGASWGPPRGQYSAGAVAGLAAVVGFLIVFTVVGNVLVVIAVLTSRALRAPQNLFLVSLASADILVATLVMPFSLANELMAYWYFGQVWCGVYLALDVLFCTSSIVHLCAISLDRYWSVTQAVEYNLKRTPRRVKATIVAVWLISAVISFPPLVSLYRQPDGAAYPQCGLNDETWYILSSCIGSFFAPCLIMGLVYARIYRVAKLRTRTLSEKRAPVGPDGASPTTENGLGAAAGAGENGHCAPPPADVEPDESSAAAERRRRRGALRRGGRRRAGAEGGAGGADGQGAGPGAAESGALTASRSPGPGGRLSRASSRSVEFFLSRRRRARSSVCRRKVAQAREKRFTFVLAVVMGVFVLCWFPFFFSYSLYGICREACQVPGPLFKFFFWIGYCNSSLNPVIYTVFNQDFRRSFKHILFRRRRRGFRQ
# [3] = target: Histamine H2 receptor (Homo sapiens, UniProt P25021); type: functional, cell-based
# [4] = target: T2, 5-hydroxytryptamine receptor 1A (Homo sapiens, UniProt P08908); type: functional, cell-based
# T2 sequence (P08908 whole entry): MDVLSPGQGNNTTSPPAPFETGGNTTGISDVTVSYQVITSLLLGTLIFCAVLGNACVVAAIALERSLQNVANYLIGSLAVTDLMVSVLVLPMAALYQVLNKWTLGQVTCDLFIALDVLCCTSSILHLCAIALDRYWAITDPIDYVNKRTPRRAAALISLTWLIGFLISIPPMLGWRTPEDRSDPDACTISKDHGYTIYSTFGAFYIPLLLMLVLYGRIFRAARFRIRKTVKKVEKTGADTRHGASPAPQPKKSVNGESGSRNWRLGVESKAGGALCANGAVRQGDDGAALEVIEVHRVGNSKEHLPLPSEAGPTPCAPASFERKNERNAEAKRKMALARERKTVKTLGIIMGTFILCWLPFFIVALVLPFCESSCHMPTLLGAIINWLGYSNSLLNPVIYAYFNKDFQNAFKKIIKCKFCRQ
# [5] = target: 3',5'-cyclic-AMP phosphodiesterase 4D (Homo sapiens, UniProt Q08499); type: functional
# [6] = target: T3, Amine oxidase [flavin-containing] A (Homo sapiens, UniProt P21397); type: functional
# T3 sequence (P21397 whole entry): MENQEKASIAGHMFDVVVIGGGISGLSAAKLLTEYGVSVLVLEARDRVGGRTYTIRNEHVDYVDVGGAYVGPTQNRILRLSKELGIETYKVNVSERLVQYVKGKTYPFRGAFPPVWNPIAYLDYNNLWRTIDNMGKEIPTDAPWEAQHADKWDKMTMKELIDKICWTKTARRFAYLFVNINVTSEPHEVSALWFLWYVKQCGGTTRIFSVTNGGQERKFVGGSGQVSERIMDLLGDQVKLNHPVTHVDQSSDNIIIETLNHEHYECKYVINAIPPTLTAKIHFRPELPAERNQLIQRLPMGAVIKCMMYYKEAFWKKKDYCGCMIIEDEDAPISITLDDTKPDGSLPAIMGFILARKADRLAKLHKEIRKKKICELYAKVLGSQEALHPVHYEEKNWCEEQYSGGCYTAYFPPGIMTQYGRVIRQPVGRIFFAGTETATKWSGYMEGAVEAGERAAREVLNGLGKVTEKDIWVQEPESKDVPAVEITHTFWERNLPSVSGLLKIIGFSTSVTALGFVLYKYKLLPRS
# [7] = target: cGMP-inhibited 3',5'-cyclic phosphodiesterase 3A (Homo sapiens, UniProt Q14432); type: functional
# [8] = target: D(3) dopamine receptor (Homo sapiens, UniProt P35462)
# [9] = target: Adenosine receptor A2a (Homo sapiens, UniProt P29274)
# [10] = target: Vasopressin V2 receptor (Homo sapiens, UniProt P30518)
# [11] = target: T4, B2 bradykinin receptor (Homo sapiens, UniProt P30411)
# T4 sequence (P30411 whole entry): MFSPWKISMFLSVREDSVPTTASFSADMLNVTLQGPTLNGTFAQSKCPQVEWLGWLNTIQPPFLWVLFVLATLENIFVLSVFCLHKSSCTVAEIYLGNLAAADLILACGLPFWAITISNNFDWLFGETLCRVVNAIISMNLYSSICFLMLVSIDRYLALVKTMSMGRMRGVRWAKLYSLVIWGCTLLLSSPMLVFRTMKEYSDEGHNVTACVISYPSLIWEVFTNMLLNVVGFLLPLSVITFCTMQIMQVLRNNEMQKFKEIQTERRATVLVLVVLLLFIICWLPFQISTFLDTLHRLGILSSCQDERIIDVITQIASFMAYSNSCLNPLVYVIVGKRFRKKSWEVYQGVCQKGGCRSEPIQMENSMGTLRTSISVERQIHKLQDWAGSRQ
# [12] = target: T5, Cholecystokinin receptor type A (Homo sapiens, UniProt P32238)
# T5 sequence (P32238 whole entry): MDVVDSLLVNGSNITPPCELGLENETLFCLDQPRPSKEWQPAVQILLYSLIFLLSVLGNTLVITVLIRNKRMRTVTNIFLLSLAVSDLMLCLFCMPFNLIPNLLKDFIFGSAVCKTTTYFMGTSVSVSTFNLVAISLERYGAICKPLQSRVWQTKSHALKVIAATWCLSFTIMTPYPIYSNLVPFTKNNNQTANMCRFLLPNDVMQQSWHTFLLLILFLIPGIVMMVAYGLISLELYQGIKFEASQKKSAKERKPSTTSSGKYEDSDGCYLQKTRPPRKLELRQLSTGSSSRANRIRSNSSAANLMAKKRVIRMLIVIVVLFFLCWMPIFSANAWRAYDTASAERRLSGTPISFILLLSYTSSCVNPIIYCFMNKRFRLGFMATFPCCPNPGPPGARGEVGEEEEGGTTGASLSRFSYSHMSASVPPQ
# [13] = target: Neuronal acetylcholine receptor subunit alpha-4 (Homo sapiens, UniProt P43681)
# [14] = target: Growth hormone secretagogue receptor type 1 (Homo sapiens, UniProt Q92847)
# Further: assay procedure not described here.
# Voltage-gated inwardly rectifying potassium channel KCNH2, sequence (Q12809 whole entry): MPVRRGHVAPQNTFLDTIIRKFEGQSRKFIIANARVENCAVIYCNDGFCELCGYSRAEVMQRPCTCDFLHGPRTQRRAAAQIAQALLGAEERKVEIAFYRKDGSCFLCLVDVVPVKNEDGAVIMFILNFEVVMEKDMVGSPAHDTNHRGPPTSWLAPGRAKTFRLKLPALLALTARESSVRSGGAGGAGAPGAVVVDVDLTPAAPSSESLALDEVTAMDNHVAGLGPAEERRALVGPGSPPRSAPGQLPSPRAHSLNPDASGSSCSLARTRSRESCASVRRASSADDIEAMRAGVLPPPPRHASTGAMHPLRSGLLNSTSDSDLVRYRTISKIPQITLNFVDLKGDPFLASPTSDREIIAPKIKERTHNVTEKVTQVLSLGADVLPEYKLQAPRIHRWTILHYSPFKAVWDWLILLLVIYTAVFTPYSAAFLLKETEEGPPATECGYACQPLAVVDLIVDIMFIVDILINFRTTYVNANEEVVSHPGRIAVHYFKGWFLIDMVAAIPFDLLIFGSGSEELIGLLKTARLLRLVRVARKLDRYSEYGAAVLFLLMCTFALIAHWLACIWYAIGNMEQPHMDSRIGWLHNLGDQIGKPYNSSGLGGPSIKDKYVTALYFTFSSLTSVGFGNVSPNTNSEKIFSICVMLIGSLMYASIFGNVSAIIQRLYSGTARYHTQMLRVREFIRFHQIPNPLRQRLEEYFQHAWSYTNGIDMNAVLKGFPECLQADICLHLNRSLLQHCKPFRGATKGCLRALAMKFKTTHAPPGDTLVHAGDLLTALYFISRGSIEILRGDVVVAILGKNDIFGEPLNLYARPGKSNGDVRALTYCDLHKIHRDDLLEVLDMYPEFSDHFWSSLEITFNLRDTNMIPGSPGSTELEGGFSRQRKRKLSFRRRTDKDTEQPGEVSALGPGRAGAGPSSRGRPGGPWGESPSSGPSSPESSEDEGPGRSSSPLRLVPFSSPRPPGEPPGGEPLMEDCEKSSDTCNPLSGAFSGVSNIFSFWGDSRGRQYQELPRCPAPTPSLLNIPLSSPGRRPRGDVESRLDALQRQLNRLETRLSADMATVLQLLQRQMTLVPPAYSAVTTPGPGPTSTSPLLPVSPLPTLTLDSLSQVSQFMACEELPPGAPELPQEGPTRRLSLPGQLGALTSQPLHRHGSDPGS
# 3',5'-cyclic-AMP phosphodiesterase 4D, sequence (Q08499 whole entry): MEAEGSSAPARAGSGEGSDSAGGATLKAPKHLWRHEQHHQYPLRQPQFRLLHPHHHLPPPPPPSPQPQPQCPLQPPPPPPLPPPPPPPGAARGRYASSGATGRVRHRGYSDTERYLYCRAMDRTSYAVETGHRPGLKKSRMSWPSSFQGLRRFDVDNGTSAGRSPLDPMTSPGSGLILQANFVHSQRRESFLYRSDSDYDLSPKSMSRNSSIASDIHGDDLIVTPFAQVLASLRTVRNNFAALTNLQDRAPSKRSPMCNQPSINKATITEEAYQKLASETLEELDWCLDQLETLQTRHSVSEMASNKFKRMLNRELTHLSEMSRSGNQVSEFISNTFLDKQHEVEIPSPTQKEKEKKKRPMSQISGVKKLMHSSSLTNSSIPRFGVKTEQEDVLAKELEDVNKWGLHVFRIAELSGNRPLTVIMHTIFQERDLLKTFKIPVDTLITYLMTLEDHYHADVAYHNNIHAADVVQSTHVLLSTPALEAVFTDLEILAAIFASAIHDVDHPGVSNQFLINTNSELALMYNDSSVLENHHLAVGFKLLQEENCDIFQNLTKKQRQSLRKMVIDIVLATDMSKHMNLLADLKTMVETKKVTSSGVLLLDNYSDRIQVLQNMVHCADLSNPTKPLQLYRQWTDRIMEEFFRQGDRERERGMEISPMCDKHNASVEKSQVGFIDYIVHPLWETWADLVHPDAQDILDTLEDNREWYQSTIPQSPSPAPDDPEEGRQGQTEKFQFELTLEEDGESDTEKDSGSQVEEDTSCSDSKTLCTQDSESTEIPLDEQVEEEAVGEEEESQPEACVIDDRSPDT
# cGMP-inhibited 3',5'-cyclic phosphodiesterase 3A, sequence (Q14432 whole entry): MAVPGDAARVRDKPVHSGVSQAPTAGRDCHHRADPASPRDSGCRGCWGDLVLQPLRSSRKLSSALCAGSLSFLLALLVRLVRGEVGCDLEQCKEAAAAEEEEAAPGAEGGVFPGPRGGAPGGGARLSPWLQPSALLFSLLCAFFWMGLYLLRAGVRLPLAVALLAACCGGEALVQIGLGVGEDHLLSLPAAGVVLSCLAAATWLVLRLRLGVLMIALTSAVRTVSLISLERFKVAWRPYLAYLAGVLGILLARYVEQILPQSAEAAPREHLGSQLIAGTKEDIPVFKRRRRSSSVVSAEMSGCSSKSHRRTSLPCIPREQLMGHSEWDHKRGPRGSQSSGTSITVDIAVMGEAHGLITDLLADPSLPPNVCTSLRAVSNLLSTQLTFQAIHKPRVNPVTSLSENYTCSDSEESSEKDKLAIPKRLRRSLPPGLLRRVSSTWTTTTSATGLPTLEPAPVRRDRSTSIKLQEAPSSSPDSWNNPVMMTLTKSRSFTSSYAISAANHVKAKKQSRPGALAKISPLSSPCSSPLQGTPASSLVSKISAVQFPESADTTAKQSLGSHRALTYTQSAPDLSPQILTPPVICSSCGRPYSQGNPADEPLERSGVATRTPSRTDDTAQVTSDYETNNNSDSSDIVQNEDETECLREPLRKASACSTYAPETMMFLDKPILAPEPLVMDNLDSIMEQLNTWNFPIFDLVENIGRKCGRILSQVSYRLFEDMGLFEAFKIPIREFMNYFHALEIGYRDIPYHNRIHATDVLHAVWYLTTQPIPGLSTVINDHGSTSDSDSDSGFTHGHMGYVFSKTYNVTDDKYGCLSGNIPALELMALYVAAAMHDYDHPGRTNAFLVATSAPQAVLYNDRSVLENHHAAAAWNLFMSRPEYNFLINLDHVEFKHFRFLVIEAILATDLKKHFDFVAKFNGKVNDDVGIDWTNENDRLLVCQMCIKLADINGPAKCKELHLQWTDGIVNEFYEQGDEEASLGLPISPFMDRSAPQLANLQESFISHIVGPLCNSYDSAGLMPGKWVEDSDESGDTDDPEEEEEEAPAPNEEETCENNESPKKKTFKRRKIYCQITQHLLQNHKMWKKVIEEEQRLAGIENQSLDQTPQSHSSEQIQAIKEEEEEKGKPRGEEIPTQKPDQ
# D(3) dopamine receptor, sequence (P35462 whole entry): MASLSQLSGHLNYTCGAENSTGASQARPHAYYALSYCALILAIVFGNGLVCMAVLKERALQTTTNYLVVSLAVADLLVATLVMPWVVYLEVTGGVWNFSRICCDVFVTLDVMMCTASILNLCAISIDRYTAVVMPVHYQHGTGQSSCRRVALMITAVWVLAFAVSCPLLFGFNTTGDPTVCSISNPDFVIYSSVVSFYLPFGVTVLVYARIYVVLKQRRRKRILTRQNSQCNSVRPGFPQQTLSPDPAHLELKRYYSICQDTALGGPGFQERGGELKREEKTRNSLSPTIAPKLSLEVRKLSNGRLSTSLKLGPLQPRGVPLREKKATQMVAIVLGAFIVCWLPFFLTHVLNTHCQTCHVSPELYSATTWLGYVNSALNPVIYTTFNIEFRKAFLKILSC
# Growth hormone secretagogue receptor type 1, sequence (Q92847 whole entry): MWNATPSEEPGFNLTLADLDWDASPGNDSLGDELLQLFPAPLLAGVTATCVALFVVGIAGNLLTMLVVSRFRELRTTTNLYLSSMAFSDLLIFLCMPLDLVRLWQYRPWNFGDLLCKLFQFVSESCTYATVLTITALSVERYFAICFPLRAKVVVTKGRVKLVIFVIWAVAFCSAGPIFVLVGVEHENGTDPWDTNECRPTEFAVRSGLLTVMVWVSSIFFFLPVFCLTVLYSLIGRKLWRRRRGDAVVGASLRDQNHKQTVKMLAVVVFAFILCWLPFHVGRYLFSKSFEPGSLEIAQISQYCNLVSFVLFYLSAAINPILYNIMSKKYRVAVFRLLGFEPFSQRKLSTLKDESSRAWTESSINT
# Vasopressin V2 receptor, sequence (P30518 whole entry): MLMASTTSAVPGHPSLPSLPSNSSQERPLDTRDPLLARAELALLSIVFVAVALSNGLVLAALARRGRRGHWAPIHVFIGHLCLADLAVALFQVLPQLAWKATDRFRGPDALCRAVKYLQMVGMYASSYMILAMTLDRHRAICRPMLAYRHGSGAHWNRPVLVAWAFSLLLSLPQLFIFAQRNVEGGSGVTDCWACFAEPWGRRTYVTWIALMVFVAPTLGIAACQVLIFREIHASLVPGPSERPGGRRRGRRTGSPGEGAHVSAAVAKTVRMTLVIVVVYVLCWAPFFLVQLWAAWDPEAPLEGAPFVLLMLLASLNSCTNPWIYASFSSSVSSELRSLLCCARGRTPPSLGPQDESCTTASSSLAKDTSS
# Neuronal acetylcholine receptor subunit alpha-4, sequence (P43681 whole entry): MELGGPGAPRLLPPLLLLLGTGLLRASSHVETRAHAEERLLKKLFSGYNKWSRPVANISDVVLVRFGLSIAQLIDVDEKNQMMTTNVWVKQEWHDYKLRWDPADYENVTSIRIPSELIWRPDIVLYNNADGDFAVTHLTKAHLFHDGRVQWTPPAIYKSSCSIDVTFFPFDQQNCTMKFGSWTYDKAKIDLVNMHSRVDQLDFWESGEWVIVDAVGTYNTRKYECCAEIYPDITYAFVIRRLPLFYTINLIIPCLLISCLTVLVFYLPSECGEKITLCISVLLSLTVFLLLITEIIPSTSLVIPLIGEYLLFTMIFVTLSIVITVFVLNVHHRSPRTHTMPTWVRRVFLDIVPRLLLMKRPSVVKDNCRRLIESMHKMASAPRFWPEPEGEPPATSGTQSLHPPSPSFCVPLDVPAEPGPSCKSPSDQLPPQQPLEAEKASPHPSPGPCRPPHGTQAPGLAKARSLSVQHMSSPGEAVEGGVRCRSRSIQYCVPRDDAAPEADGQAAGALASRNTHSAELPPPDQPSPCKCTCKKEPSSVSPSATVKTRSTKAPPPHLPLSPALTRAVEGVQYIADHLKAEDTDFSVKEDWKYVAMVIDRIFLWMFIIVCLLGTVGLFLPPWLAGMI
compound,measurement,setting,value
CC(=O)O[C@]1(C(C)=O)CC[C@H]2[C@@H]3C=C(Cl)C4=CC(=O)CC[C@]4(C)[C@H]3CC[C@@]21C [CHLORMADINONE ACETATE],AC50,[1],> 30 µM
C=CCSCC1Nc2cc(Cl)c(S(N)(=O)=O)cc2S(=O)(=O)N1 (stereo not drawn) [ALTHIAZIDE],AC50,[1],> 30 µM
O=[N+]([O-])c1ccc(O)c2ncccc12 [NITROXOLINE],AC50,[2],7.1 µM
same,AC50,[3],> 30 µM
same,AC50,[4],> 30 µM
same,AC50,[1],28 µM
same,AC50,[5],3.2 µM
same,AC50,[6],> 30 µM
same,AC50,[7],> 30 µM
same,AC50,[8],5.8 µM
CCCc1nc(C(C)(C)O)c(C(=O)O)n1Cc1ccc(-c2ccccc2-c2nnn[nH]2)cc1 [OLMESARTAN],AC50,[1],> 30 µM
c1ccc2c(c1)CCc1ccccc1N2C1CN2CCC1CC2 (stereo not drawn) [QUINUPRAMINE],AC50,[1],12 µM
Cc1cc(N)c2ccccc2[n+]1CCCCCCCCCC[n+]1c(C)cc(N)c2ccccc21,AC50,[1],0.133 µM
CCOC(=O)N1CSC[C@H]1C(=O)O [TELMESTEINE],AC50,[1],> 30 µM
COC(=O)c1ccc(O)cc1 [METHYLPARABEN],AC50,[1],> 30 µM
CCC[C@H](NC(=O)[C@@H]1[C@H]2CCC[C@H]2CN1C(=O)[C@@H](NC(=O)[C@@H](NC(=O)c1cnccn1)C1CCCCC1)C(C)(C)C)C(=O)C(=O)NC1CC1,AC50,[9],> 30 µM
same,AC50,[2],> 10 µM
same,AC50,[10],> 30 µM
same,AC50,[11],> 30 µM
same,AC50,[12],> 30 µM
same,AC50,[13],> 10 µM
same,AC50,[14],> 30 µM
same,AC50,[1],> 30 µM
same,AC50,[5],> 30 µM
same,AC50,[6],> 10 µM
same,AC50,[7],> 30 µM
same,AC50,[8],> 30 µM
NCC(CC(=O)O)c1ccccc1 (stereo not drawn) [PHENIBUT],AC50,[1],> 30 µM
CN1C(=O)/C(=N\NC(N)=S)c2ccccc21 [METHISAZONE],AC50,[1],> 30 µM
CCOC(=O)[C@H](CCc1ccccc1)N[C@@H](C)C(=O)N(CC(=O)O)C1Cc2ccccc2C1,AC50,[1],> 30 µM
CC[C@@H]([C@H](C)O)n1ncn(-c2ccc(N3CCN(c4ccc(OC[C@@H]5CO[C@@](Cn6cncn6)(c6ccc(F)cc6F)C5)cc4)CC3)cc2)c1=O [POSACONAZOLE],AC50,[2],> 30 µM
same,AC50,[1],> 30 µM
same,AC50,[5],> 30 µM
same,AC50,[6],> 30 µM
same,AC50,[7],> 30 µM
same,AC50,[8],> 30 µM
Cc1ncc(COP(=O)(O)O)c(C=O)c1O [PYRIDOXAL PHOSPHATE ANHYDROUS],AC50,[1],> 30 µM
CNCc1ccc(-c2[nH]c3cc(F)cc4c3c2CCNC4=O)cc1 [RUCAPARIB],AC50,[9],> 30 µM
same,AC50,[2],> 10 µM
same,AC50,[10],> 30 µM
same,AC50,[11],> 30 µM
same,AC50,[12],> 30 µM
same,AC50,[13],> 30 µM
same,AC50,[14],> 30 µM
same,AC50,[1],14.1 µM
same,AC50,[5],10 µM
same,AC50,[6],> 10 µM
same,AC50,[7],> 30 µM

# Source: ChEMBL document CHEMBL5291721, “A preclinical secondary pharmacology resource illuminates target-adverse drug reaction associations of marketed drugs” (Nat Commun, 2023)
